Reference: paper PMC13366236 (Acta Pharmaceutica Sinica. B, 2025)
Where “and” joins values, the source holds several entries; their conditions need not be identical. Equal entries are not always repeated. Marks after values point to notes of the source that are not given here. Values belong to the molecule of their own block, whether it stands above or below them.

Tests used:
MCF-7 cells = assay: Cell viability CCK-8 assay; type: cell-based; details: Homo sapiens, MCF7, 48 h, read-out: Antiproliferative IC50 ± SD
MDA-MB-231 cells [1] = assay: Cell viability CCK-8 assay; type: cell-based, human; details: for IC50: Homo sapiens, MDA-MB-231, 48 h, read-out: Antiproliferative IC50 ± SD
HCT-116 cells = assay: Cell viability CCK-8 assay; type: cell-based; details: Homo sapiens, HCT-116, 48 h, read-out: Antiproliferative IC50 ± SD
mTOR [2] = target: T1, mTOR (Homo sapiens, UniProt P42345); assay: mTOR kinase inhibition, Lance Ultra assay; type: biochemical; details: for IC50: mTOR, IC50, mean ± SD of triplicate measurements
MDA-MB-436 cells = assay: Cell viability CCK-8 assay; type: cell-based; details: Homo sapiens, MDA-MB-436, 48 h, read-out: Antiproliferative IC50 ± SD
[3] = test system: panel of 200 human kinases; assay: Kinase-specificity profiling; type: binding; details: 1.0 μmol/L
MDA-MB-231 cells [4] = assay: Colony formation assay; type: cell-based, human; details: MDA-MB-231, 0.05, 0.1, 0.5 μmol/L
MDA-MB-231 cells [5] = assay: Apoptosis, Annexin V-AF647/7AAD flow cytometry; type: cell-based, human; details: 24 h
[6] = test system: PI3K/Akt/mTOR signaling pathway; assay: Western blot of PI3K/Akt/mTOR signaling pathway in MDA-MB-231 cells; type: cell-based, human; details: MDA-MB-231, 0.5, 1, 2 μmol/L, 24 h
PI3Kα = PI3Kα (Homo sapiens, UniProt P42336); assay: biochemical
Sequence of PI3Kα (P42336 whole entry): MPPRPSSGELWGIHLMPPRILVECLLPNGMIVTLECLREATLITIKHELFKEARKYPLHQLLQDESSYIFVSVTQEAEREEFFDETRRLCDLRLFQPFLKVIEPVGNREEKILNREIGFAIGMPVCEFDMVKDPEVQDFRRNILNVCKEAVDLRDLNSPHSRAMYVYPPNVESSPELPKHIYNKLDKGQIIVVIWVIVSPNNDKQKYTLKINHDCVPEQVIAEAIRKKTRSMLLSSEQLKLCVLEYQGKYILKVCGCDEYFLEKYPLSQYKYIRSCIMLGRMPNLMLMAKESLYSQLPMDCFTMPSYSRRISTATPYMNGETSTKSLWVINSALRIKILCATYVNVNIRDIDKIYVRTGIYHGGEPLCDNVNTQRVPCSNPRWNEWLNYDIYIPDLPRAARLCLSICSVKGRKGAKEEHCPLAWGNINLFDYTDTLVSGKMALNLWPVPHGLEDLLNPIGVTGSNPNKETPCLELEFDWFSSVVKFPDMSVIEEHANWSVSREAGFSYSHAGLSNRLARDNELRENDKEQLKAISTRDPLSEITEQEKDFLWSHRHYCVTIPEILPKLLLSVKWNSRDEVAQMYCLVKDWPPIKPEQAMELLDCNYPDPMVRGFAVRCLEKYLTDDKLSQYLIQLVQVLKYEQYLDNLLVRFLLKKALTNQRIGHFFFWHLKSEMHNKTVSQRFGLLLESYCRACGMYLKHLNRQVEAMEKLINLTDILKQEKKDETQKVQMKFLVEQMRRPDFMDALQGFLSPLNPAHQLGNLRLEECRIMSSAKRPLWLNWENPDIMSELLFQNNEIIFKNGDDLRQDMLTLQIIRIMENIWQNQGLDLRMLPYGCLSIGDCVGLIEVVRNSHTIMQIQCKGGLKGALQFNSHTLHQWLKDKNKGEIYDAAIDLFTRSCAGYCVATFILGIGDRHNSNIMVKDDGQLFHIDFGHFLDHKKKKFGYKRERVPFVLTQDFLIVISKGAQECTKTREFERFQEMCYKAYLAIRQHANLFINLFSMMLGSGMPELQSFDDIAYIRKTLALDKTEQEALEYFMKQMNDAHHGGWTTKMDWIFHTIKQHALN
Sequence of PI3Kα (P27986 whole entry partner): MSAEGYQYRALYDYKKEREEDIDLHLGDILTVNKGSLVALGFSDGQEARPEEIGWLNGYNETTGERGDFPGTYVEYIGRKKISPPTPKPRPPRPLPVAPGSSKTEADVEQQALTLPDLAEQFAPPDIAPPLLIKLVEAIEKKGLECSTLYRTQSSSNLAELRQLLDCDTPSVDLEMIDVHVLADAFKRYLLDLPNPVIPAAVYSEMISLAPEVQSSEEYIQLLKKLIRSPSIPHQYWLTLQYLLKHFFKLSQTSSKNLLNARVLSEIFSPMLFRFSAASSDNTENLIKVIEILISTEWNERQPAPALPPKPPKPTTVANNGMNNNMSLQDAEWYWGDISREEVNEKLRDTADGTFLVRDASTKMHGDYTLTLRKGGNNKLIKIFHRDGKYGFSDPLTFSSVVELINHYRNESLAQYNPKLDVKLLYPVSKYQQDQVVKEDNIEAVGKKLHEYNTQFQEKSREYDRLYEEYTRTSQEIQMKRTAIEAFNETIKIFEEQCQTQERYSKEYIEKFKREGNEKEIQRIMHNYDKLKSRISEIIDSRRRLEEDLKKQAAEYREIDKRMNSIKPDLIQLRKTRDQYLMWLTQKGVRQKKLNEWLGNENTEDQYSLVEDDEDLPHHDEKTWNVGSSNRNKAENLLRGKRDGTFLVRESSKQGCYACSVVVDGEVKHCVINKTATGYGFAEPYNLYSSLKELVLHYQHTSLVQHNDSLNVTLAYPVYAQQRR

PI3Kδ = PI3Kδ (Homo sapiens, UniProt O00329); assay: biochemical
[7] = Pharmacokinetic study in SD rats; type: in vivo
MDA-MB-468 cells = assay: Cell viability CCK-8 assay; type: cell-based; details: Homo sapiens
MDA-MB-231 cells [8] = assay: Autophagy induction, Western blot and LC3B immunofluorescence; type: cell-based, human; details: MDA-MB-231, 0.5, 1, 2 μmol/L, 24 h
[9] = test system: cGAS/STING signaling pathway; assay: Western blot of cGAS/STING signaling pathway in MDA-MB-231 cells; type: cell-based, human; details: MDA-MB-231, 0.5‒2.0 μmol/L, 24 h
mTOR [10] = target: T1, mTOR; assay: Cellular thermal shift assay; type: cell-based; details: MDA-MB-231 cells, 5 μmol/L, 8 h
CYP 2D6 = CYP 2D6 (Homo sapiens, UniProt P10635); assay: CYP enzyme inhibition; details: CYP 2D6 IC50
Sequence of CYP 2D6 (P10635 whole entry): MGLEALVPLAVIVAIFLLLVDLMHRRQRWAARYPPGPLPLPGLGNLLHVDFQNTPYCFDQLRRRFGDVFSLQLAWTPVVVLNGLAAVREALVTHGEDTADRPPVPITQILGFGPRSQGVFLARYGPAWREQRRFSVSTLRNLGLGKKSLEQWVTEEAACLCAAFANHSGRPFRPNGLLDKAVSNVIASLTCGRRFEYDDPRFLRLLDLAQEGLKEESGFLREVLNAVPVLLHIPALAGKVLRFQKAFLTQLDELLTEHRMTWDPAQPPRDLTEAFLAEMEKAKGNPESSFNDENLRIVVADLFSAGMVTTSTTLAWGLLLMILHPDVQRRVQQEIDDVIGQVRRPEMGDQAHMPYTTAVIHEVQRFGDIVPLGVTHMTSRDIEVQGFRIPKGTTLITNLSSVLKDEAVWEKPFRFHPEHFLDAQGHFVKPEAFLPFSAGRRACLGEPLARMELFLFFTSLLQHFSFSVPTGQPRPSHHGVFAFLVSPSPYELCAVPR

MDA-MB-231 cells [11] = assay: Transwell invasion assay; type: cell-based, human; details: MDA-MB-231, concentration-dependent
MDA-MB-231 xenograft = MDA-MB-231 xenograft tumor model; type: in vivo, female BALB/c nude mice; details: i.v., Day 15; for Tumor size: mean ± SEM
PI3Kγ = PI3Kγ (Homo sapiens, UniProt P48736); assay: biochemical
Sequence of PI3Kγ (P48736 whole entry): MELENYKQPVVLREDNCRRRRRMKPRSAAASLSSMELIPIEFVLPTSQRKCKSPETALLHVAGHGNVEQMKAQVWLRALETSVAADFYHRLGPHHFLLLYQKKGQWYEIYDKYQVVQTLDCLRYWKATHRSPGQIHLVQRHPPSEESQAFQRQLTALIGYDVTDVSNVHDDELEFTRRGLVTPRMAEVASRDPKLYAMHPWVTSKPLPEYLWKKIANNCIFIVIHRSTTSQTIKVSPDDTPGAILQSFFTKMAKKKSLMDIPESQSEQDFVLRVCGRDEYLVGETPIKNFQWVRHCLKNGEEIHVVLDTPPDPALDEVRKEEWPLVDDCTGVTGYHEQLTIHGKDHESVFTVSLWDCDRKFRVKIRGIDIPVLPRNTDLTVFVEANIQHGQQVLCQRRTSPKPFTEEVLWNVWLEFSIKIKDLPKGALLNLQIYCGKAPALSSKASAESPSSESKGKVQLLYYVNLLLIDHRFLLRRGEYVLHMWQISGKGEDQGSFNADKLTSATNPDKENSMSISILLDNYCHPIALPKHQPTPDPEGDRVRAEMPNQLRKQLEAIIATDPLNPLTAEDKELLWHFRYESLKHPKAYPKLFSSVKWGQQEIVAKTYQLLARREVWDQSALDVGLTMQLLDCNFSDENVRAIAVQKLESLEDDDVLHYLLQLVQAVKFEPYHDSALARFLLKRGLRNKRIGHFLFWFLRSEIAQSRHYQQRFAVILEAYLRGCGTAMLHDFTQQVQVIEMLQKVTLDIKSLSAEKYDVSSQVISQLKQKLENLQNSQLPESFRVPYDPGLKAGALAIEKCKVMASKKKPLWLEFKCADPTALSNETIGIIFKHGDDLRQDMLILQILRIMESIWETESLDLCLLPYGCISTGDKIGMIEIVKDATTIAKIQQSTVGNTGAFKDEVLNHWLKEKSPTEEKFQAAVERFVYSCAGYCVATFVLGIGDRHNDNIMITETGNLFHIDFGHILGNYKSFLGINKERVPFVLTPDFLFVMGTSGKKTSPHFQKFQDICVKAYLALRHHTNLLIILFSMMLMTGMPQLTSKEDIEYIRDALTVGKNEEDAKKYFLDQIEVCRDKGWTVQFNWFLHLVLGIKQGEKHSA

CYP 1A2 = CYP 1A2 (Homo sapiens, UniProt P05177); assay: CYP enzyme inhibition
MDA-MB-231 cells [12] = assay: Wound healing; type: cell-based, human; details: MDA-MB-231, 0.25, 0.5, 1.0 μmol/L, concentration-dependent
PI3KC2g(h) = PI3KC2g(h) (Homo sapiens, UniProt O75747); assay: Kinase profiling; type: binding; details: 1.0 μmol/L
CYP 3A4 = CYP 3A4 (Homo sapiens, UniProt P08684); assay: CYP enzyme inhibition; details: CYP 3A4 IC50
PI3Kβ = PI3Kβ (Homo sapiens, UniProt P42338); assay: biochemical
Sequence of PI3Kβ (P42338 whole entry): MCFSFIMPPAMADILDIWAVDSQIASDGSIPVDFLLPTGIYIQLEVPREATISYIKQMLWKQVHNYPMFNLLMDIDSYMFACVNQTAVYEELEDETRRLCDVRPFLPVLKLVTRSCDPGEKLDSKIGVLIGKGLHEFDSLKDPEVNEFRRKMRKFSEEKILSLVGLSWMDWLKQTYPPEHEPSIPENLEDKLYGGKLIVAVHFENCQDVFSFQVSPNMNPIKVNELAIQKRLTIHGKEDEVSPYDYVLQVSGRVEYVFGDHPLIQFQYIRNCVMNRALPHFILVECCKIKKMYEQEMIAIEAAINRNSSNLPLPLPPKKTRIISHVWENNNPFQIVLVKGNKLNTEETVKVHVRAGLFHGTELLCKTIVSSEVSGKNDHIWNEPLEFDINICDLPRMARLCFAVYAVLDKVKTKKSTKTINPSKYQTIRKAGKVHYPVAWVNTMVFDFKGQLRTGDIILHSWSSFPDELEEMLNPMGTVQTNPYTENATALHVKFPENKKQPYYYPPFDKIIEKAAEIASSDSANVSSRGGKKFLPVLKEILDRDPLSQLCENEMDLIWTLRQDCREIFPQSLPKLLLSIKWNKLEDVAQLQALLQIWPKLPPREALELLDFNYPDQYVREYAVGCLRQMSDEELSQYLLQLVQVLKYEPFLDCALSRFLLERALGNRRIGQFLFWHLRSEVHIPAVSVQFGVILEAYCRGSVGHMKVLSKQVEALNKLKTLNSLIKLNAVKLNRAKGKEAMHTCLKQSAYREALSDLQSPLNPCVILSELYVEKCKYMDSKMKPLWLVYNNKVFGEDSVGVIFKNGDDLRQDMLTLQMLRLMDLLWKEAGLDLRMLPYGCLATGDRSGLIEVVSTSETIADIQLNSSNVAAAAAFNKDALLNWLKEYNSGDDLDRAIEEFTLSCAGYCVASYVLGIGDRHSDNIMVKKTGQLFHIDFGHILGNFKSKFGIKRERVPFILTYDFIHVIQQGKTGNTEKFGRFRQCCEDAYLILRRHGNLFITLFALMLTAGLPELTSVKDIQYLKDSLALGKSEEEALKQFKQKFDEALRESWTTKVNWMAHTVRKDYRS
Sequence of PI3Kβ (P27986 whole entry partner): as the sequence (P27986 whole entry partner) above

CYP 2C19 = CYP 2C19 (Homo sapiens, UniProt P33261); assay: CYP enzyme inhibition; details: CYP 2C19 IC50
Sequence of CYP 2C19 (P33261 whole entry): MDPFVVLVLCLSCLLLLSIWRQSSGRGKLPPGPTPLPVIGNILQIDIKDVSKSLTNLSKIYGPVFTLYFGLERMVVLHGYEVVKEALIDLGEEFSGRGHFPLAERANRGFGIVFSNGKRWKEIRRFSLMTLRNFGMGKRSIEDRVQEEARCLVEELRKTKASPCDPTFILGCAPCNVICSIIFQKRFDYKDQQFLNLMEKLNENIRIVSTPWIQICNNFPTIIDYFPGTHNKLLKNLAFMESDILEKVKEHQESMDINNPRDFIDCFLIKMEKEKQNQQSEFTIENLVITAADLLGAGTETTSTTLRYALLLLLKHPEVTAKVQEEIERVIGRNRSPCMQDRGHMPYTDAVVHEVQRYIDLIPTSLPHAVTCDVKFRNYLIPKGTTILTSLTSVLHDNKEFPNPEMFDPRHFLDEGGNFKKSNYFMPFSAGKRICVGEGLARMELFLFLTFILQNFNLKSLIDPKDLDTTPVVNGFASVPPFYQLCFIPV

CYP 2C9 = CYP 2C9 (Homo sapiens, UniProt P11712); assay: CYP enzyme inhibition; details: CYP 2C9 IC50
[13] = Sprague-Dawley, rat, plasma, iv, 5 mg/kg
[14] = Sprague-Dawley, rat, plasma, po, 20 mg/kg

IC50 (MCF-7 cells): 1316 ± 6.4 nM | IC50 (MDA-MB-231 cells [1]): 104 ± 3.3 nM | IC50 (HCT-116 cells): 900.5 ± 5.5 nM | IC50 (mTOR [2]): 473 ± 42.4 nM | IC50 (MDA-MB-436 cells): 566 ± 9.1 nM
SMILES: CNCCC(=O)Nc1ccccc1/N=c1\cc(-c2ccc3nc(N)oc3c2)oc2ccccc12 [Compound 12c, (E)-N-(2-((2-(2-aminobenzo[d]oxazol-6-yl)-4H-chromen-4-ylidene)amino)phenyl)-3-(methylamino)propanamide]

IC50 (MCF-7 cells): 547 ± 679 nM | IC50 (MDA-MB-231 cells [1]): 1770 ± 473 nM | IC50 (HCT-116 cells): 1570 ± 132 nM | IC50 (mTOR [2]): 26.3 ± 0.2 nM | fold more potent than 12a (mTOR IC50) (mTOR [2]; vs 12a): 1.72 fold
SMILES: NCCC(=O)Nc1ccccc1/N=c1\cc(-c2ccc3nc(N)oc3c2)oc2ccc(O)cc12 [Compound 12n, (E)-3-amino-N-(2-((2-(2-aminobenzo[d]oxazol-6-yl)-6-hydroxy-4H-chromen-4-ylidene)amino)phenyl)propanamide]

binding activity to the panel of kinases [3]: no obvious binding activity | IC50 (MCF-7 cells): 328 ± 5.4 nM | IC50 (MDA-MB-231 cells [1]): 66.5 ± 1.5 nM | IC50 (HCT-116 cells): 555 ± 315 nM | IC50 (mTOR [2]): 49.4 ± 17.1 nM | IC50 (PI3Kα): > 10 µM | IC50 (PI3Kδ): > 10 µM | Cl ([7]; SD rats, i.g. 20 mg/kg): 0.75 ± 0.07 mL/min/kg | Vss ([7]; SD rats, i.g. 20 mg/kg): 15.04 ± 4.24 L/kg | AUC(0-inf) [7, 13]: 29900 ng·h/mL | AUC(0-t) [7, 13]: 28800 ng·h/mL | Cmax [7, 13]: 29200 ng/mL | MRT last [7, 13]: 2.93 ± 0.16 h | Tmax [7, 13]: 3 min | Vd [7, 13]: 4.43 ± 0.93 L/kg | clearance [7, 13]: 2.83 mL/min/kg | half-life [7, 13]: 848 ± 201 min | bioavailability ([7]; Sprague-Dawley, rat, plasma, oral, 20 mg/kg): 4.75% | AUC(0-inf) [7, 14]: 5680 ± 501 ng·h/mL | AUC(0-t) [7, 14]: 5300 ± 514 ng·h/mL | Cmax [7, 14]: 1150 ± 174 ng/mL | MRT last [7, 14]: 5.44 ± 0.2 h | Tmax [7, 14]: 84 ± 33 min | half-life [7, 14]: 838 ± 247 min | IC50 (MDA-MB-468 cells; MDA-MB-468, read-out: Antiproliferative IC50): 148 nM | target engagement of mTOR in CETSA (mTOR [10]): directly interacts with mTOR protein | IC50 (CYP 2D6): 19.9 µM | IC50 (MDA-MB-436 cells): 148 ± 1.7 nM | IC50 (PI3Kγ): > 10 µM | IC50 (CYP 1A2): > 50 µM | binding to PI3KC2γ (PI3KC2g(h)): weak binding | IC50 (CYP 3A4): > 50 µM | IC50 (PI3Kβ): > 10 µM | IC50 (CYP 2C19): > 50000 nM | IC50 (CYP 2C9): > 50000 nM
SMILES: COc1ccc2oc(-c3ccc4nc(N)oc4c3)c/c(=N\c3ccccc3NC(=O)CCN)c2c1 [Compound 12j, (E)-3-amino-N-(2-((2-(2-aminobenzo[d]oxazol-6-yl)-6-methoxy-4H-chromen-4-ylidene)amino)phenyl)propanamide]
colony formation ability (MDA-MB-231 cells [4]): significantly inhibited | percentage of total apoptotic cells (MDA-MB-231 cells [5]; MDA-MB-231, 0.5 μmol/L): 4.73% | percentage of total apoptotic cells (MDA-MB-231 cells [5]; MDA-MB-231, 1 μmol/L): 9.43% | percentage of total apoptotic cells (MDA-MB-231 cells [5]; MDA-MB-231, 2 μmol/L): 22.23% | fold more potent antiproliferative effect than Doxorubicin (MDA-MB-231 cells [1]; MDA-MB-231): 1.1 fold | fold more potent antiproliferative effect than Everolimus (MDA-MB-231 cells [1]; MDA-MB-231): 34.4 fold | expression of p-P70S6K(Thr389), p-Akt(Ser473), p-4EBP1(Thr37/46) [6]: significantly downregulated in a concentration-dependent manner | inhibition at 1 µM (MDA-MB-468 cells; MDA-MB-468, read-out: Inhibition rate @ 1.0 μmol/L): 74% | autophagy induction (MDA-MB-231 cells [8]): significantly enhanced autophagy induction | phosphorylation of STING(Ser366), TBK(Ser172), IRF3(Ser366) [9]: concentration-dependent increase | invasion (MDA-MB-231 cells [11]): significantly inhibit the invasion | T/C (MDA-MB-231 xenograft; 10 mg/kg, Q3D × 6): 61.36% | TGI (MDA-MB-231 xenograft; 10 mg/kg, Q3D × 6, listed as MT-44): 38.64% and 38.64 ^d % | Tumor size (MDA-MB-231 xenograft; 10 mg/kg, Q3D × 6): 210.95 ± 33.18 mm^3 | T/C (MDA-MB-231 xenograft; 20 mg/kg, Q3D × 6): 27.27% | TGI (MDA-MB-231 xenograft; 20 mg/kg, Q3D × 6, listed as MT-44): 72.73% and 72.73 ^e % | Tumor size (MDA-MB-231 xenograft; 20 mg/kg, Q3D × 6): 115.97 ± 20.63 mm^3 | anti-migration effect (MDA-MB-231 cells [12]): significantly inhibit the migration

IC50 (MCF-7 cells): 1487 ± 2.8 nM | IC50 (MDA-MB-231 cells [1]): 285 ± 425 nM | IC50 (HCT-116 cells): 313200 ± 5.7 nM | IC50 (mTOR [2]): 165 ± 8.1 nM
SMILES: Nc1nc2ccc(-c3c/c(=N\c4ccccc4NC(=O)C4CCNC4)c4ccccc4o3)cc2o1 (stereo not shown) [Compound 12i, (E)-N-(2-((2-(2-aminobenzo[d]oxazol-6-yl)-4H-chromen-4-ylidene)amino)phenyl)pyrrolidine-3-carboxamide]

IC50 (MCF-7 cells): 211 ± 87.7 nM | IC50 (MDA-MB-231 cells [1]): 125 ± 5.9 nM | IC50 (HCT-116 cells): 307.9 ± 2.2 nM | IC50 (mTOR [2]): 166 ± 6.3 nM | IC50 (MDA-MB-436 cells): 112 ± 62.3 nM
SMILES: NCCC(=O)Nc1ccccc1/N=c1\cc(-c2ccc3nc(N)oc3c2)oc2ccc(F)cc12 [Compound 12k, (E)-3-amino-N-(2-((2-(2-aminobenzo[d]oxazol-6-yl)-6-fluoro-4H-chromen-4-ylidene)amino)phenyl)propanamide]

IC50 (MCF-7 cells): 118 ± 63.6 nM | IC50 (MDA-MB-231 cells [1]): 337 ± 12.8 nM | IC50 (HCT-116 cells): 1510 ± 361 nM | IC50 (mTOR [2]): 45.2 ± 8.8 nM | fold more potent than the lead compound MT-1 (mTOR IC50) (mTOR [2]; vs MT-1): 34 fold | IC50 (PI3Kα): > 10 µM | IC50 (PI3Kδ): > 10 µM | IC50 (CYP 2D6): 5.52 µM | IC50 (MDA-MB-436 cells): 498 ± 18.1 nM | IC50 (PI3Kγ): > 10 µM | IC50 (CYP 1A2): > 50 µM | IC50 (CYP 3A4): 7.86 µM | IC50 (PI3Kβ): > 10 µM | IC50 (CYP 2C19): 680 nM | IC50 (CYP 2C9): 140 nM
SMILES: NCCC(=O)Nc1ccccc1/N=c1\cc(-c2ccc3nc(N)oc3c2)oc2ccccc12 [Compound 12a, (E)-3-amino-N-(2-((2-(2-aminobenzo[d]oxazol-6-yl)-4H-chromen-4-ylidene)amino)phenyl)propanamide]

IC50 (MDA-MB-231 cells [1]): 75.6 nM
SMILES: COc1cccc2c1C(=O)c1c(O)c3c(c(O)c1C2=O)C[C@@](O)(C(=O)CO)C[C@@H]3O[C@H]1C[C@H](N)[C@H](O)[C@H](C)O1 [Doxorubicin, reference compound]
T/C (MDA-MB-231 xenograft; 2.5 mg/kg, Q7D × 2): 31.82% | TGI (MDA-MB-231 xenograft; 2.5 mg/kg, Q7D × 2): 68.18 ^d % | Tumor size (MDA-MB-231 xenograft; 2.5 mg/kg, Q7D × 2): 115.17 ± 32.95 mm^3

IC50 (MCF-7 cells): > 10000 nM | IC50 (MDA-MB-231 cells [1]): > 10000 nM | IC50 (HCT-116 cells): > 10000 nM | IC50 (mTOR [2]): 40.2 ± 1 nM | IC50 (MDA-MB-436 cells): > 10000 nM
SMILES: NCCC(=O)Nc1ccccc1/N=c1\cc(-c2ccc3nc(N)oc3c2)oc2cc(O)ccc12 [Compound 12m, (E)-3-amino-N-(2-((2-(2-aminobenzo[d]oxazol-6-yl)-7-hydroxy-4H-chromen-4-ylidene)amino)phenyl)propanamide]

IC50 (MCF-7 cells): 2790 ± 346 nM | IC50 (MDA-MB-231 cells [1]): > 10000 nM | IC50 (HCT-116 cells): > 10000 nM | IC50 (MDA-MB-436 cells): > 10000 nM
SMILES: Oc1cccc(-c2nc(N3CCOCC3)c3oc4ncccc4c3n2)c1 [PI-103, reference compound]
colony formation ability (MDA-MB-231 cells [4]): significantly inhibited | percentage of total apoptotic cells (MDA-MB-231 cells [5]; MDA-MB-231, 2 μmol/L): 4.47% | T/C (MDA-MB-231 xenograft; 20 mg/kg, Q3D × 6): 61.36% | TGI (MDA-MB-231 xenograft; 20 mg/kg, Q3D × 6): 38.64 ^d % | Tumor size (MDA-MB-231 xenograft; 20 mg/kg, Q3D × 6): 256.59 ± 40.06 mm^3 | anti-migration effect (MDA-MB-231 cells [12]): significantly inhibit the migration
